# From US12421211B2, “Heterocyclic compounds” (Hoffmann-La Roche Inc., priority 2021, dated 2025)
# Where a name gives a salt, the structure may show the parent alone.
# System: Acinetobacter baumannii ATCC17961
# Assay: Antimicrobial susceptibility testing: 90% growth inhibitory concentration (IC90) determination
# Assay type: cell-based
# Settings: Acinetobacter baumannii, ATCC17961, 16 h, 90% growth inhibitory concentration, Acinetobacter baumannii ATCC17961, Iso-Sensitest broth, OD 600 nm over 16 h; read-out: ATCC 17961 IC90
# How it was run: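 Growth inhibition derived in log phase from OD600 kinetics (every 20 minutes, 16h, 35±2° C) of ATCC17961 in Iso-Sensitest medium, inoculum ~5×10^5 CFU/ml. Compounds tested as twofold series, 10 points (e.g. 50 to 0.097 μM final); IC90 and IC50 reported.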
row,Compound,IC90 [nM]
1,"Cn1c(-c2ccc(-c3cn(CCC(N)=O)nc3C(F)(F)F)c(F)c2F)cnc1C(=O)Nc1ccc(C(=O)N2CCN(C(=O)C3CC[N+](C)(C)CC3)CC2)c(Cl)c1 [Example F1, 5-[4-[1-(3-amino-3-oxo-propyl)-3-(trifluoromethyl)pyrazol-4-yl]-2,3-difluoro-phenyl]-N-[3-chloro-4-[4-(1,1-dimethylpiperidin-1-ium-4-carbonyl)piperazine-1-carbonyl]phenyl]-1-methyl-imidazole-2-carboxamide; formate]",330
2,"Cc1ccc(NC(=O)NCCn2cc(-c3ccc(-c4cnc(C(=O)Nc5ccc(C(=O)N6CCN(C(=O)C7CC[N+](C)(C)CC7)CC6)c(Cl)c5)n4C)c(F)c3F)c(C)n2)cn1 [Example M1, N-[3-chloro-4-[4-(1,1-dimethylpiperidin-1-ium-4-carbonyl)piperazine-1-carbonyl]phenyl]-5-[2,3-difluoro-4-[3-methyl-1-[2-[(6-methyl-3-pyridyl)carbamoylamino]ethyl]pyrazol-4-yl]phenyl]-1-methyl-imidazole-2-carboxamide formate]",152
3,"Cc1nn(Cc2ccc(N)cn2)cc1-c1ccc(-c2cnc(C(=O)Nc3ccc(C(=O)N4CCN(C(=O)C5CC[N+](C)(C)CC5)CC4)c(Cl)c3)n2C)c(F)c1F [Example F43, 5-[4-[1-[(5-amino-2-pyridyl)methyl]-3-methyl-pyrazol-4-yl]-2,3-difluoro-phenyl]-N-[3-chloro-4-[4-(1,1-dimethylpiperidin-1-ium-4-carbonyl)piperazine-1-carbonyl]phenyl]-1-methyl-imidazole-2-carboxamide; chloride]",570
4,"COCCn1ncc(-c2ccc(-c3cnc(C(=O)Nc4ccc(C(=O)N5CCN(C(=O)C6(OC)CCNCC6)CC5)c(Cl)c4)n3C)c(F)c2F)c1C [Example D44, N-[3-chloro-4-[4-(4-methoxypiperidine-4-carbonyl)piperazine-1-carbonyl]phenyl]-5-[2,3-difluoro-4-[1-(2-methoxyethyl)-5-methyl-pyrazol-4-yl]phenyl]-1-methyl-imidazole-2-carboxamide]",160
5,"COCCn1ncc(-c2ccc(-c3cnc(C(=O)Nc4ccc(C(=O)N5CCC(C(=O)N6CC[N+](C)(C)C(CO)C6)CC5)c(Cl)c4)n3C)c(F)c2F)c1C (centres unmarked) [Example D6, N-[3-chloro-4-[4-[3-(hydroxymethyl)-4,4-dimethyl-piperazin-4-ium-1-carbonyl]piperidine-1-carbonyl]phenyl]-5-[2,3-difluoro-4-[1-(2-methoxyethyl)-5-methyl-pyrazol-4-yl]phenyl]-1-methyl-imidazole-2-carboxamide; formate]",85
6,"COCCn1ncc(-c2ccc(-c3cnc(C(=O)Nc4ccc(C(=O)N5CCN(C(=O)C6CCNC(=O)C6)CC5)c(Cl)c4)n3C)c(F)c2F)c1C (centres unmarked) [Example D27, N-[3-chloro-4-[4-(2-oxopiperidine-4-carbonyl)piperazine-1-carbonyl]phenyl]-5-[2,3-difluoro-4-[1-(2-methoxyethyl)-5-methyl-pyrazol-4-yl]phenyl]-1-methyl-imidazole-2-carboxamide; 2,2,2-trifluoroacetic acid]",230
7,"Cc1n[nH]c(C)c1-c1ccc(-c2cnc(C(=O)Nc3ccc(C(=O)N4CCN(C(=O)C[N+](C)(C)C)CC4)c(Cl)c3)n2C)cc1 [Example F52, [2-[4-[2-chloro-4-[[5-[4-(3,5-dimethyl-1H-pyrazol-4-yl)phenyl]-1-methyl-imidazole-2-carbonyl]amino]benzoyl]piperazin-1-yl]-2-oxo-ethyl]-trimethyl-ammonium; 2,2,2-trifluoroacetate]",270
8,"COCCn1ncc(-c2ccc(-c3cnc(C(=O)Nc4ccc(C(=O)N5CCN(C(=O)CCC[N+](C)(CC(=O)O)CC6CNC6)CC5)c(Cl)c4)n3C)c(F)c2F)c1C (centres unmarked) [Example P1, azetidin-3-ylmethyl-(carboxymethyl)-[4-[4-[2-chloro-4-[[5-[2,3-difluoro-4-[1-(2-methoxyethyl)-5-methyl-pyrazol-4-yl]phenyl]-1-methyl-imidazole-2-carbonyl]amino]benzoyl]piperazin-1-yl]-4-oxo-butyl]-methyl-ammonium; formate]",191
9,"COCCn1ncc(-c2ccc(-c3cnc(C(=O)Nc4ccc(C(=O)N5CCN(C(=O)CN(C)C)CC5)c(C)c4)n3C)cc2)c1C [Example E14, N-[4-[4-[2-(dimethylamino)acetyl]piperazine-1-carbonyl]-3-methyl-phenyl]-5-[4-[1-(2-methoxyethyl)-5-methyl-pyrazol-4-yl]phenyl]-1-methyl-imidazole-2-carboxamide]",270
10,"COCCn1ncc(-c2ccc(-c3cnc(C(=O)Nc4ccc(C(=O)N5CCN(C(=O)C6(O)CCNCC6)CC5)c(Cl)c4)n3C)c(F)c2F)c1C [Example D24, N-[3-chloro-4-[4-(4-hydroxypiperidine-4-carbonyl)piperazine-1-carbonyl]phenyl]-5-[2,3-difluoro-4-[1-(2-methoxyethyl)-5-methyl-pyrazol-4-yl]phenyl]-1-methyl-imidazole-2-carboxamide; formic acid]",73
11,"Cc1nn(CC(=O)Nc2ccncc2)cc1-c1ccc(-c2cnc(C(=O)Nc3ccc(C(=O)N4CCN(C(=O)C5CC[N+](C)(C)CC5)CC4)c(Cl)c3)n2C)c(F)c1F [Example G17, N-[3-chloro-4-[4-(1,1-dimethylpiperidin-1-ium-4-carbonyl)piperazine-1-carbonyl]phenyl]-5-[2,3-difluoro-4-[3-methyl-1-[2-oxo-2-(4-pyridylamino)ethyl]pyrazol-4-yl]phenyl]-1-methyl-imidazole-2-carboxamide; chloride]",720
12,"COc1cccc(Cn2cc(-c3ccc(-c4cnc(C(=O)Nc5ccc(C(=O)N6CCN(C(=O)C7CC[N+](C)(C)CC7)CC6)c(Cl)c5)n4C)c(F)c3F)c(C)n2)n1 [Example F55, N-[3-chloro-4-[4-(1,1-dimethylpiperidin-1-ium-4-carbonyl)piperazine-1-carbonyl]phenyl]-5-[2,3-difluoro-4-[1-[(6-methoxy-2-pyridyl)methyl]-3-methyl-pyrazol-4-yl]phenyl]-1-methyl-imidazole-2-carboxamide; formate]",270

# Same assay, conditions: Acinetobacter baumannii, ATCC17961, 16 h, read-out: ATCC 17961 IC90
row,Compound,IC90 [nM]
1,"COCCn1nc(C)c(-c2ccc(-c3cnc(C(=O)Nc4ccc(C(=O)N5CCN(C(=O)C6CC[N+](C)(CCOC)CC6)CC5)c(Cl)c4)n3C)c(F)c2F)c1C (centres unmarked) [Example B9, N-[3-chloro-4-[4-[1-(2-methoxyethyl)-1-methyl-piperidin-1-ium-4-carbonyl]piperazine-1-carbonyl]phenyl]-5-[2,3-difluoro-4-[1-(2-methoxyethyl)-3,5-dimethyl-pyrazol-4-yl]phenyl]-1-methyl-imidazole-2-carboxamide; formate]",510
2,"Cc1n[nH]cc1-c1ccc(-c2cnc(C(=O)Nc3ccc(C(=O)N4CCN(C(=O)[C@@H]5C[C@@H](O)C[N+]5(C)CCO)CC4)c(Cl)c3)n2C)c(F)c1F (stereo partly drawn) [Example B36, N-[3-chloro-4-[4-[(2S,4R)-4-hydroxy-1-(2-hydroxyethyl)-1-methyl-pyrrolidin-1-ium-2-carbonyl]piperazine-1-carbonyl]phenyl]-5-[2,3-difluoro-4-(3-methyl-1H-pyrazol-4-yl)phenyl]-1-methyl-imidazole-2-carboxamide; 2,2,2-trifluoroacetate]",110
